In patent US8969363B2, “Heterocyclic compounds and uses thereof” (Infinity Pharmaceuticals, Inc., priority 2011, dated 2015):
Like-named read-outs stand apart in the source and are kept apart here.

How the values were obtained:
PI3Kβ = experiment: PI3 Kinase HTRF assay, PI3Kβ; assay type: biochemical, human; conditions: 10 μM PIP2, 10 μM ATP; 'Greater than 10 μM' and 'Greater than 1 μM to 10 μM'; read-out: PI3K β IC50
In short: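 Recombinant PI3Kβ converting PIP2 (10 μM) to PIP3 with 10 μM ATP; PIP3 detected by competitive HTRF displacement of biotin-PIP3/GST-GRP1 PH domain complex. Emission ratios converted to % inhibition; IC50 by nonlinear regression.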

Balb/c splenic B cells = experiment: B cell activation and proliferation assay (Alamar Blue); assay type: cell-based; conditions: Mus musculus, 'Less than 100 nM'
In short: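 Balb/c splenic B cells (Ficoll, then MACS purification; 50,000/well) were preincubated 30 min with compound at 0.2% final DMSO. They were then stimulated 72 h at 37 °C with a cocktail of 10 μg/ml LPS, or 5 μg/ml anti-mouse F(ab′)2 plus 2 ng/ml mouse IL4. Alamar Blue was read after 5 h at 560Ex/590Em, giving IC50 or EC50.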

[1] = system: phospho-AKT in 786-O cells (PI3Kβ); experiment: PI3Kβ selective cellular assay: phospho-AKT in 786-O cells; assay type: cell-based; conditions: Homo sapiens, 786-0, read-out: IC50 for phospho-AKT, 786-O cell model
Source text: A compound's ability in selectively inhibiting PI3Kβ can be assessed using 786-O cells, i.e., human kidney carcinoma cell line. Briefly, 786-O cells, in which PI3Kβ is constitutively active, can be treated with test compounds. Test compounds' ability to inhibit AKT phosphorylation in 786-O cells, therefore, is indicative of selective inhibition of PI3Kβ. Thus, by monitoring the reduction of phospho-AKT in 786-O cells (using for example, phospho-AKT antibodies), a compound's potential efficacy in selectively inhibiting PI3Kβ can be assessed.
Certain compounds provided herein (e.g., Compounds I-21, I-86, I-87, I-91, and III-13) were tested in 786-O cell model using procedures as described above.

PI3Kα = target: T1, PI3Kα (Homo sapiens, UniProt P42336); experiment: PI3 Kinase HTRF assay, PI3Kα; assay type: biochemical; conditions: 10 μM PIP2, 10 μM ATP; 'Greater than 10 μM' and 'Greater than 1 μM to 10 μM'; read-out: PI3K α IC50
T1 construct: purchased Millipore Corporation 14-602-K
T1 sequence (P42336 whole entry): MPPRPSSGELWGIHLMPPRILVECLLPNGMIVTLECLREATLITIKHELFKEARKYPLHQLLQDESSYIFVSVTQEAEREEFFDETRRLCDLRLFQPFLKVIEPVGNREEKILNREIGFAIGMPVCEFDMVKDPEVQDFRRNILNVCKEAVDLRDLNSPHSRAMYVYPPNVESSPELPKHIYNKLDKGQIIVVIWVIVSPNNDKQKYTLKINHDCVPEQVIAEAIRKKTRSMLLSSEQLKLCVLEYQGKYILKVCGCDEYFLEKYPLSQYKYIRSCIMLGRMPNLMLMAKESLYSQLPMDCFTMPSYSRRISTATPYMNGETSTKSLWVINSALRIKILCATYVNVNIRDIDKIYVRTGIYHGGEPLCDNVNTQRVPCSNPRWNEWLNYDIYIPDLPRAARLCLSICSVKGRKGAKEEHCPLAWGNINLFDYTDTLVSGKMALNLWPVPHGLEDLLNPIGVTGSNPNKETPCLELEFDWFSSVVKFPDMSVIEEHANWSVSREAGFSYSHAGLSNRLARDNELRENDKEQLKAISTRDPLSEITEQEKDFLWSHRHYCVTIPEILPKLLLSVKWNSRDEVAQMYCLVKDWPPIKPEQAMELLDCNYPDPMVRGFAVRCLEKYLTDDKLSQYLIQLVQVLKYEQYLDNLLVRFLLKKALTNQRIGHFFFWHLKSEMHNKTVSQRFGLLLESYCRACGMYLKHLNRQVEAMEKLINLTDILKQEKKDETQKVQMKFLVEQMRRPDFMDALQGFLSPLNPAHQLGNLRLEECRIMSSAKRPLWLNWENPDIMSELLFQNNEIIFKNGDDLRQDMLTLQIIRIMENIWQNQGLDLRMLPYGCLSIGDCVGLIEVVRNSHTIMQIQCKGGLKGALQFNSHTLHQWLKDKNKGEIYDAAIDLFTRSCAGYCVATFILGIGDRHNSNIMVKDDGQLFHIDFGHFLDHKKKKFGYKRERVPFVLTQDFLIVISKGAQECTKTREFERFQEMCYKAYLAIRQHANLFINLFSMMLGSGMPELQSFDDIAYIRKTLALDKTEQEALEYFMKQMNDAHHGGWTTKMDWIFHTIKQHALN
T1 sequence (P27986 whole entry partner): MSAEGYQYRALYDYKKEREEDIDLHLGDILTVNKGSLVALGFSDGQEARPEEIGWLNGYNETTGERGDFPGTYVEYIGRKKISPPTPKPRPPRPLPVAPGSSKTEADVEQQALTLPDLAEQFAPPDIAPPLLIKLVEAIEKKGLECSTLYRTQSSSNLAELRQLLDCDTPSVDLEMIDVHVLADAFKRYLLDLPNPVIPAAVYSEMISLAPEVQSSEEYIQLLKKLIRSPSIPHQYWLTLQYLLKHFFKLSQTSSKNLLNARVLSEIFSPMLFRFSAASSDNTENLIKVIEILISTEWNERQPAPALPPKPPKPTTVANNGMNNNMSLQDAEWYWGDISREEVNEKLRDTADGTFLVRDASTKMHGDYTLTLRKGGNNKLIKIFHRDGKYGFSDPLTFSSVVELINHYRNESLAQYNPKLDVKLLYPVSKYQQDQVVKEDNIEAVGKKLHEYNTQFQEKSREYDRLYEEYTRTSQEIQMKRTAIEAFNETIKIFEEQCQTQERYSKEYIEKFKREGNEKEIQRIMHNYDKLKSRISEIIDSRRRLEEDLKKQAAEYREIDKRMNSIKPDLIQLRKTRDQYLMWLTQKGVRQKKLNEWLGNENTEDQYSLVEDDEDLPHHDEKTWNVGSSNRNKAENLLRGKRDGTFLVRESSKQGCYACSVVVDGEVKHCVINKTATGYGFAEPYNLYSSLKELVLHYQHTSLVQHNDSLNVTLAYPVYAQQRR
In short: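 Recombinant PI3K converts 10 μM PIP2 with 10 μM ATP, 1 h at room temperature after 15 min compound preincubation, 2% DMSO. PIP3 detected by competitive HTRF with GRP1 PH domain; IC50 by nonlinear regression over 12 points, 20 μM to 0.1 nM.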

[2] = system: phospho-AKT in RAJI cells (PI3Kδ); experiment: PI3Kδ selective cellular assay: phospho-AKT in anti-human IgM stimulated RAJI cells; assay type: cell-based; conditions: read-out: IC50 for phospho-AKT, RAJI cell model
Source text: A compound's ability in selectively inhibiting PI3Kδ can be assessed using RAJI cells, i.e., B lymphocyte cells derived from lymphoma patients. Briefly, serum-starved RAJI cells are stimulated with anti-human IgM, thereby causing signaling through the B-cell receptors, as described in, for example, He et al., Leukemia Research (2009) 33: 798-802. B-cell receptor signaling is important for the activation, differentiation, and survival of B cells and certain B-cell derived cancers. Reduction of phospho-AKT is indicative of compounds that may inhibit B-cell proliferation and function in certain diseases. By monitoring the reduction of phospho-AKT in stimulated RAJI cells (using for example, phospho-AKT antibodies), a compound's potential efficacy in selectively inhibiting PI3Kδ can be assessed.
Certain compounds provided herein (e.g., Compounds I-21, I-86, I-87, I-91, I-106, and III-13) were tested in RAJI cell model using procedures as described above.

[3] = system: phospho-AKT in RAW 264.7 cells (PI3Kγ); experiment: PI3Kγ selective cellular assay: phospho-AKT in C5a stimulated RAW 264.7 cells; assay type: cell-based; conditions: Mus musculus
Source text: A compound's ability in selectively inhibiting PI3Kγ can be assessed using RAW264.7 macrophages. Briefly, serum-starved PAW264.7 cells are stimulated with a known GPCR agonist C5a. (See, e.g., Camps et al., Nature Medicine (2005) 11(9): 936-943). Cells can be treated with test compounds prior to, simultaneously with, or subsequent to the stimulation by C5a. RAW 264.7 cells respond to the complement component fragment C5a through activation of the C5a receptor, and the C5a receptor activates macrophages and induces cell migration. Test compounds' ability to inhibit C5a-mediated AKT phosphorylation is indicative of selective inhibition of PI3Kγ. Thus, by monitoring the reduction of phospho-AKT in stimulated RAW 264.7 cells (using for example, phospho-AKT antibodies), a compound's potential efficacy in selectively inhibiting PI3Kγ can be assessed.
Certain compounds provided herein (e.g., Compounds I-21, I-86, I-87, I-91, I-106, and III-13) were tested in RAW 264.7 cell model using procedures as described above.

[4] = system: phospho-AKT in SKOV-3 cells (PI3Kα); experiment: PI3Kα selective cellular assay: phospho-AKT in SKOV-3 cells; assay type: cell-based; conditions: Homo sapiens
Source text: A compound's ability in selectively inhibiting PI3Kα can be assessed using SKOV-3 cells, i.e., human ovarian carcinoma cell line. Briefly, SKOV-3 cells, in which mutant PI3Kα is constitutively active, can be treated with test compounds. Test compounds' ability to inhibit AKT phosphorylation in SKOV-3 cells, therefore, is indicative of selective inhibition of PI3Kα. Thus, by monitoring the reduction of phospho-AKT in SKOV-3 cells (using for example, phospho-AKT antibodies), a compound's potential efficacy in selectively inhibiting PI3Kα can be assessed.
Certain compounds provided herein (e.g., Compounds I-21, I-86, I-87, I-91, and III-13) were tested in SKOV-3 cell model using procedures as described above.

[5] = system: p190 transduced leukemic cells in mice; conditions: about 70 mg/kg twice daily; cited from earlier work
NZB/W F1 mice = conditions: prophylactic and therapeutic model; cited from earlier work
[6] = control compounds, 5 μM; cited from earlier work
B6.Sle1z.Sle3z model = conditions: cited from earlier work
[7] = PBS pH 7.4, 37° C., 24 hours; cited from earlier work
[8] = RAW264.7, read-out: IC50 for phospho-AKT, RAW 264.7 cell model
[9] = SK-OV-3, read-out: IC50 for phospho-AKT, SKOV-3 cell model
[10] = RAW264.7, range with units in value, read-out: IC50 for phospho-AKT, RAW 264.7 cell model

Sequence of PI3Kβ (Q8BTI9 whole entry, the tested form may be a part): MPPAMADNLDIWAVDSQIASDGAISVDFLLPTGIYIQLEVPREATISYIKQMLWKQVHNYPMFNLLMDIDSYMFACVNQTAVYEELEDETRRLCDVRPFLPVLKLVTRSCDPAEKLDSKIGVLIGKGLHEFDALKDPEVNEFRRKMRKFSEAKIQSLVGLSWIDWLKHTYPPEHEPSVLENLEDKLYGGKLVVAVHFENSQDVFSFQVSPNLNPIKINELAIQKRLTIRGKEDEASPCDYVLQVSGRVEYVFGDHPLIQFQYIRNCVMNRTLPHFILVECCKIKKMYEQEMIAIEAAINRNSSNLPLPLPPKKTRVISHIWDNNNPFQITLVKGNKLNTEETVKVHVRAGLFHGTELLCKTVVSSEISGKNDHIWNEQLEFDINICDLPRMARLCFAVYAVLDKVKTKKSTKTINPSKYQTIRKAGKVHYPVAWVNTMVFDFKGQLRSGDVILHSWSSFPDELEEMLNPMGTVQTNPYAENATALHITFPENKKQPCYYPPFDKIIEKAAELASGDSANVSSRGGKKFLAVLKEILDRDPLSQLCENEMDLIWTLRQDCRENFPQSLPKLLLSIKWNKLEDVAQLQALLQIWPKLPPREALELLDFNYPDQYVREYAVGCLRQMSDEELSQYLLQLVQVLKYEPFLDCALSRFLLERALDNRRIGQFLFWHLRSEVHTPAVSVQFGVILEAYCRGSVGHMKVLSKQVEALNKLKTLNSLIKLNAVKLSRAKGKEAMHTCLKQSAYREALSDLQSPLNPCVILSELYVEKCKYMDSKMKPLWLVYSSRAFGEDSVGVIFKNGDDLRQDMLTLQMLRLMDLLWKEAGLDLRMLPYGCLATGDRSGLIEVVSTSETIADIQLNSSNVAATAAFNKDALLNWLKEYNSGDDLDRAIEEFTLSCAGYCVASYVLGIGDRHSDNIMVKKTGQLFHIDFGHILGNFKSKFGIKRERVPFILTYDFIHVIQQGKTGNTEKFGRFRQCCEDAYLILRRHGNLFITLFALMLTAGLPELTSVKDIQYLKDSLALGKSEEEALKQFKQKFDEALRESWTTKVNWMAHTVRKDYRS

Row | Structure (SMILES) | IC50 (PI3Kβ) [µM] | EC50 (Balb/c splenic B cells) [µM] | IC50 [1] [µM] | IC50 (PI3Kα) [µM] | IC50 [2] [µM] | IC50 [4, 9] [µM] | further results
1 | COc1ncc(-c2cccc3nc([C@H](C)Nc4nc(N)nc5cccnc45)n(-c4ccccc4)c(=O)c23)cn1 [Compound I-86] | > 10 | < 0.1 | 1 to 10 | 1 to 10 | < 0.1 | 1 to 10 | IC50 [3, 8]: < 0.1 µM
2 | Cc1ccc(NC(=O)c2ccc(CN3CCN(C)CC3)cc2)cc1Nc1nccc(-c2cccnc2)n1 [imatinib] | – | – | – | – | – | – | leukemogenesis [5]: delay but not cure leukemogenesis
3 | CC(C)C[C@H](NC(=O)[C@H](Cc1ccccc1)NC(=O)c1cnccn1)B(O)O [Bortezimib, bortezomib] | – | – | – | – | – | – | disease in the NZB/W model (NZB/W F1 mice): effective at blocking disease in the NZB/W model
4 | C[C@H](Nc1ncnc2cccnc12)c1cc2cccc(-c3cnn(C)c3)c2c(=O)n1-c1ccccc1 [Compound I-21] | > 10 | < 0.1 | 1 to 10 | 1 to 10 | < 0.1 | 1 to 10 | IC50 [3, 10]: 0.1 to 1 µM
5 | CC(C)[N+](C)(CCOC(=O)C1c2ccccc2Oc2ccccc21)C(C)C [propantheline] | – | – | – | – | – | – | plasma stability [6]: intermediate plasma stability
6 | C[C@H](Nc1ncnc2[nH]cnc12)c1cc2cccc(C(F)(F)F)c2c(=O)n1-c1cccc(F)c1 [III-13] | 1 to 10 | < 0.1 | 1 to 10 | 1 to 10 | < 0.1 | 1 to 10 | IC50 [3, 10]: 0.1 to 1 µM
7 | CCCOc1cc(N)ccc1C(=O)OCCN(CC)CC [propoxycaine] | – | – | – | – | – | – | plasma stability [6]: low plasma stability
8 | CO[C@H]1C[C@@H]2CC[C@@H](C)[C@@](O)(O2)C(=O)C(=O)N2CCCC[C@H]2C(=O)O[C@H]([C@H](C)C[C@@H]2CC[C@@H](OCCO)[C@H](OC)C2)CC(=O)[C@H](C)/C=C(\C)[C@@H](O)[C@@H](OC)C(=O)[C@H](C)C[C@H](C)/C=C/C=C/C=C/1C [RAD001, everolimus] | – | – | – | – | – | – | lupus symptoms (B6.Sle1z.Sle3z model): ameliorate lupus symptoms
9 | C[C@H](Nc1nc(N)nc2cccnc12)c1nc2cccc(-c3cnn(C)c3)c2c(=O)n1-c1ccccc1 [Compound I-87] | > 10 | < 0.1 | 1 to 10 | 1 to 10 | < 0.1 | – | IC50 [3, 8]: < 0.1 µM; IC50 ([4]; SK-OV-3, range with units in value, read-out: IC50 for phospho-AKT, SKOV-3 cell model): 0.1 to 1 µM
10 | O=C(O)CCCc1ccc(N(CCCl)CCCl)cc1 [chlorambucil] | – | – | – | – | – | – | chemical stability [7]: largely hydrolyzed over the course of 24 hours
11 | Cc1ncc(-c2cccc3nc([C@H](C)Nc4nc(N)nc5cccnc45)n(-c4ccccc4)c(=O)c23)cn1 [Compound I-91, (S)-2-(1-((2-aminopyrido[3,2-d]pyrimidin-4-yl)amino)ethyl)-5-(2-methylpyrimidin-5-yl)-3-phenylquinazolin-4(3H)-one] | > 10 | < 0.1 | 1 to 10 | 1 to 10 | < 0.1 | 1 to 10 | IC50 [3, 8]: < 0.1 µM
